Results: patent US5194433A, “Antibiotic C-3 catechol-substituted cephalosporin compounds, compositions and method of use thereof” (Bristol-Myers Squibb Company, priority 1990, dated 1993)
≈ marks a conversion by molar mass, not a printed value. Where two headings read alike, the source gives them in different places.

Legend:
Assay in all cases: in vitro antibacterial activity, two-fold serial agar dilution in Mueller-Hinton agar (MIC)
Assay type in all cases: cell-based
PCresistant S. aureus = conditions: Staphylococcus aureus; Gp-Ib, 5 strains, penicillin-resistant S. aureus; read-out: Geometric mean of MIC
Excerpt: (§1) Table 3 lists the in vitro antibacterial activity of several representative compounds of the invention. The activity has been evaluated in terms of minimum inhibitory concentrations (MIC's) by a standard two-fold serial agar dilution method in Mueller-Hinton agar. The values are in geometric means of MIC's against the strains tested in each group. The activity of the known compound ceftazidime is also given for comparison.
GpIb: PCresistant S. aureus

X. moltophilia = conditions: read-out: Geometric mean of MIC
Excerpt: as §1

P. cepacia = conditions: Burkholderia cepacia; Pc, 2 strains; read-out: Geometric mean of MIC
Excerpt: as §1

[1] = tested on: Penicillin (PC)sensitive S. aureus; conditions: Staphylococcus aureus, Gp-Ia, 5 strains, read-out: Geometric mean of MIC
Excerpt: as §1
GpIa: Penicillin (PC)sensitive S. aureus

[2] = tested on: Cephalothin (CET)sensitive E. coli (2 strains), Kl. pneumoniae (1) and Pr. mirabilis (2); conditions: Gn-Ia, 5 strains, read-out: Geometric mean of MIC
Excerpt: as §1
GnIa: Cephalothin (CET)sensitive E. coli (2 strains), Kl. pneumoniae (1)

[3] = tested on: Ceftazidimemoderately resistant P. aeruginosa; conditions: Pseudomonas aeruginosa, read-out: Geometric mean of MIC
Excerpt: as §1
Pa (MR): Ceftazidimemoderately resistant P. aeruginosa

[4] = tested on: Ceftazidimehighly resistant P. aeruginosa; conditions: Pseudomonas aeruginosa; Pa (HR), 8 strains, ceftazidime highly resistant; read-out: Geometric mean of MIC
Excerpt: as §1
Pa (HR): Ceftazidimehighly resistant P. aeruginosa

[5] = tested on: M. morganii (1), Ent. cloacae (2) and Ser. marcesens (2); conditions: Morganella morganii, read-out: Geometric mean of MIC
Excerpt: as §1
GnII: M. morganii (1), Ent. cloacae (2) and Ser. marcesens (2)

[6] = tested on: CETsensitive E. coli (3) and Kl. pneumoniae (2); conditions: Escherichia coli, read-out: Geometric mean of MIC
Excerpt: as §1
GnIb: CETsensitive E. coli (3) and Kl. pneumoniae (2)

[7] = tested on: Ceftazidimesensitive P. aeruginosa; conditions: Pseudomonas aeruginosa, read-out: Geometric mean of MIC
Excerpt: as §1
Pa (S): Ceftazidimesensitive P. aeruginosa

[8] = Pa (MR), 8 strains, ceftazidime moderately resistant
[9] = Pa (S), 10 strains, ceftazidime-sensitive

For `CC(C)(O/N=C(\C(=O)NC1C(=O)N2C(C(=O)O)=C(Cn3cc4cc(O)c(=O)cc-4cn3)CS[C@H]12)c1csc(N)n1)C(=O)O` (some centres unmarked) [Ic, 7-[(Z)-2-(2-Aminothiazol-4-yl)-2-(1-carboxy-1methylethoxyimino)acetamido]-3-(2,6-dihydro-7-hydroxy-6-oxophthalazin-2-yl)methyl-3-cephem-4-carboxylic acid], the MIC (PCresistant S. aureus) was 33 µg/mL (≈ 52.4 µM), the MIC (X. moltophilia; Xm, 4 strains) was 6.3 µg/mL (≈ 10 µM) and the MIC (P. cepacia) was 0.57 µg/mL (≈ 0.905 µM). It also gave an MIC [1] of 25 µg/mL (≈ 39.7 µM), an MIC [2] of 0.11 µg/mL (≈ 0.175 µM) and an MIC [3, 8] of 0.37 µg/mL (≈ 0.588 µM). It also gave an MIC [4] of 0.73 µg/mL (≈ 1.16 µM), an MIC ([5]; Gn-II, 5 strains) of 0.4 µg/mL (≈ 0.635 µM) and an MIC [6] of 0.033 µg/mL (≈ 0.0524 µM). For the same molecule, the MIC [7, 9] was 0.033 µg/mL (≈ 0.0524 µM).

With `CC(C)(O/N=C(\C(=O)N[C@@H]1C(=O)N2C(C(=O)[O-])=C(C[n+]3ccccc3)CS[C@H]12)c1csc(N)n1)C(=O)O` [ceftazidime, reference compound] the MIC (PCresistant S. aureus) was 12.5 µg/mL (≈ 22.9 µM), the MIC (X. moltophilia) was 71 µg/mL (≈ 130 µM) and the MIC (P. cepacia) was 18 µg/mL (≈ 32.9 µM). It also gave an MIC [1] of 6.3 µg/mL (≈ 11.5 µM), an MIC [2] of 0.17 µg/mL (≈ 0.311 µM) and an MIC [3, 8] of 14 µg/mL (≈ 25.6 µM). The MIC [4] was 65 µg/mL (≈ 119 µM), the MIC [5] was 0.91 µg/mL (≈ 1.66 µM) and the MIC [6] was 0.3 µg/mL (≈ 0.549 µM). It also gave an MIC [7] of 1.2 µg/mL (≈ 2.2 µM).

Work on `CC(C)(O/N=C(\C(=O)NC1C(=O)N2C(C(=O)O)=C(Cn3ccc4ccc(O)c(=O)c-4c3)CS[C@H]12)c1csc(N)n1)C(=O)O` (some centres unmarked) [Ib, 7-[(Z)-2-(2-Aminothiazol-4-yl)-2-(1-carboxy-1-methylethoxyimino)acetamido]-3-(2,8-dihydro-7-hydroxy-8-oxo-isoquinolin-2-yl)methyl-3-cephem-4-carboxylic acid] yielded an MIC (PCresistant S. aureus) of over 100 µg/mL, an MIC (X. moltophilia; Xm, 4 strains) of 12.5 µg/mL (≈ 19.9 µM) and an MIC (P. cepacia) of 8.9 µg/mL (≈ 14.2 µM). For the same molecule, the MIC [1] was 100 µg/mL (≈ 159 µM), the MIC [2] was 0.6 µg/mL (≈ 0.954 µM) and the MIC [3, 8] was 2.9 µg/mL (≈ 4.61 µM). The MIC [4] was 2.6 µg/mL (≈ 4.14 µM), the MIC ([5]; Gn-II, 5 strains) was 2.4 µg/mL (≈ 3.82 µM) and the MIC [6] was 0.8 µg/mL (≈ 1.27 µM). The MIC [7] was 1.2 µg/mL (≈ 1.91 µM).

For `C[n+]1cn(CC2=C(C(=O)[O-])N3C(=O)C(NC(=O)C(=NOC(C)(C)C(=O)O)c4csc(N)n4)C3SC2)c2cc(O)c(O)cc21` (centres unmarked) [Id, 7-[(Z)-2-(2-Aminothiazol-4-yl)-2-(1-carboxy-1-methylethoxyimino)acetamido]-3-(5,6-dihydroxy-3-methylbenzimidazol-3-io-1-yl)methyl-3-cephem-4-carboxylate], the MIC (PCresistant S. aureus) was 33 µg/mL (≈ 52.2 µM), the MIC (X. moltophilia; Xm, 4 strains) was 0.8 µg/mL (≈ 1.27 µM) and the MIC (P. cepacia) was 3.2 µg/mL (≈ 5.07 µM). It also gave an MIC [1] of 25 µg/mL (≈ 39.6 µM), an MIC [2] of 0.044 µg/mL (≈ 0.0697 µM) and an MIC [3, 8] of 0.31 µg/mL (≈ 0.491 µM). The MIC [4] was 0.18 µg/mL (≈ 0.285 µM), the MIC [5] was 0.15 µg/mL (≈ 0.237 µM) and the MIC [6] was 0.15 µg/mL (≈ 0.237 µM). It also gave an MIC [7, 9] of 0.057 µg/mL (≈ 0.0902 µM).

`CC(C)(O/N=C(\C(=O)NC1C(=O)N2C(C(=O)O)=C(Cn3cnc4cc(O)c(O)cc43)CS[C@H]12)c1csc(N)n1)C(=O)O` (some centres unmarked) [Ia, 7-[(Z)-2-(2-Aminothiazol-4-yl)-2-(1-carboxy-1-methylethoxyimino)acetamido]-3-(5,6-dihydroxybenzimidazol-1-yl)methyl-3-cephem-4-carboxylic acid] showed an MIC (PCresistant S. aureus) of 50 µg/mL (≈ 81 µM), an MIC (X. moltophilia; Xm, 4 strains) of 3.1 µg/mL (≈ 5.02 µM) and an MIC (P. cepacia) of 12.5 µg/mL (≈ 20.2 µM). The MIC [1] was 50 µg/mL (≈ 81 µM), the MIC [2] was 0.61 µg/mL (≈ 0.988 µM) and the MIC [3] was 0.47 µg/mL (≈ 0.761 µM). For the same molecule, the MIC [4] was 0.37 µg/mL (≈ 0.599 µM), the MIC ([5]; Gn-II, 5 strains) was 1.6 µg/mL (≈ 2.59 µM) and the MIC [6] was 0.8 µg/mL (≈ 1.3 µM). The MIC [7, 9] was 0.14 µg/mL (≈ 0.227 µM).
